Results published in ChEMBL document CHEMBL1155818, “Uredinorubellins and caeruleoramularin, photodynamically active anthraquinone derivatives produced by two species of the genus ramularia” (J Nat Prod, 2008).
Active and inactive are the calls of the source. The calls are words filed in the database; no cut-off is given here.

Legend:
HT-29 [1] = test: Reduction of cell viability in human HT29 cells at 2 uM followed by illumination at 2.5 W/cm'2 cold light for 40 seconds by XTT assay; type: functional, cell-based
HT-29 [2] = test: Reduction of cell viability in human HT29 cells at 10 uM followed by illumination at 2.5 W/cm'2 cold light for 40 seconds by XTT assay; type: functional, cell-based
Pseudomonas aeruginosa = test: Antimicrobial activity against […] Pseudomonas aeruginosa DSM1117 on exposure to 2.5 W/cm'2 cold light for 40 secs at 1 to 100 uM; type: functional, organism-based
Oryctolagus cuniculus [3] = species: Oryctolagus cuniculus; test: Reduction of cell viability in rabbit HIG82 cells at 2 uM followed by illumination at 2.5 W/cm'2 cold light for 40 seconds by XTT assay; type: functional, cell-based
Oryctolagus cuniculus [4] = species: Oryctolagus cuniculus; test: Reduction of cell viability in rabbit HIG82 cells at 10 uM followed by illumination at 2.5 W/cm'2 cold light for 40 seconds by XTT assay; type: functional, cell-based
J774.A1 [5] = test: Reduction of cell viability in mouse J774A.1 cells at 2 uM followed by illumination at 2.5 W/cm'2 cold light for 40 seconds by XTT assay; type: functional, cell-based
J774.A1 [6] = test: Reduction of cell viability in mouse J774A.1 cells at 10 uM followed by illumination at 2.5 W/cm'2 cold light for 40 seconds by XTT assay; type: functional, cell-based

| Structure (SMILES) | Activity (HT-29 [1]) | Activity (HT-29 [2]) | Activity (Pseudomonas aeruginosa) | Activity (Oryctolagus cuniculus [3]) | Activity (Oryctolagus cuniculus [4]) | Activity (J774.A1 [5]) | Activity (J774.A1 [6]) |
| --- | --- | --- | --- | --- | --- | --- | --- |
| Cc1cc(O)c2c(c1)[C@H](O)[C@]13Cc4cc(O)c5c(c4[C@H]1C=C[C@@H](O)[C@@]3(O)C2=O)C(=O)c1c(O)ccc(O)c1C5=O | Active | Active | inactive | – | – | – | – |
| Cc1cc(O)c2c(c1)[C@H](O)[C@]13Cc4cc(O)c5c(c4[C@H]1C=C[C@@H](O)[C@@]3(O)C2=O)C(=O)c1cccc(O)c1C5=O | – | – | inactive | Active | Active | Active | Active |
| Cc1cc(O)c2c(c1)[C@H](O)[C@]13Cc4cc(O)c5c(c4[C@H]1C=C[C@@H](O)[C@H]3OC2=O)C=C1C(=O)C=CC(O)=C1C5=O | – | – | inactive | inactive | – | inactive | – |
| Cc1cc(O)c2c(c1)C(=O)c1cccc(O)c1C2=O | – | – | inactive | inactive | – | inactive | – |
